US20240002405A1, “ANTIMICROBIAL COMPOUNDS, SYNTHESIS METHODS, AND USES THEREOF” (Ankh Life Sciences Limited, priority 2022, published 2024)
≈ marks a conversion by molar mass, not a printed value. Where “and” joins values, the source holds several entries; their conditions need not be identical. Identical values can stand only once. Like-named read-outs stand apart in the source and are kept apart here.

Columns and labels:
MRSA (ATCC 43300) = assay: Minimum bactericidal concentration (MBC) assay, MRSA; format: cell-based; details: Staphylococcus aureus, MRSA
Experimental: (§1) (f) Determination of MBC: MBC was determined by sampling all the macroscopically clear wells. Before sampling, the wells were gently mixed by flushing them with a pipette, and a 5 μL was removed and placed on an agar plate suitable for the growth of the microbe being tested. The agar plate was divided into three parts to test three trials of a single concentration. The sample was allowed to be absorbed into the agar for ˜30 minutes. The plates were then incubated for 24 hours at 37° C. After incubation, the plates were examined to determine the compound concentration at which 99.9% killing was achieved.

VREF (ATCC 51299) = assay: Minimum bactericidal concentration (MBC) assay, VREF; format: cell-based, Enterococcus faecalis; details: VREF; for MBC: Enterococcus faecalis, ATCC51299, read-out: MBC (bactericidal activity)
Experimental: as §1

[1] = tested on: SARS-CoV-2 isolate USA-WA1/2020 in Vero-E6 cells; assay: Virus plaque formation assay; format: cell-based
SARS-CoV-2 = assay: RT-PCR quantitation of viral copy number; format: cell-based; details: 120 hours after infection
[2] = tested on: gram positive and negative bacteria; assay: Antibacterial testing against gram positive and negative bacteria; format: cell-based
Experimental: In addition to the harmaline dimers compounds, other bicyclic indole compounds (203, 233, 476/6 and 504/6,) were also tested against gram positive and negative bacteria. Particularly, the indole ethyl urea molecules 203, 233 and the tryptamide dimer molecules 476/6, 504/6, as shown below, were tested.

[3] = tested on: MRSA: S. aureus resistant to methicillin and oxacillin (ATCC 43300); assay: Broth microdilution MIC assay, MRSA; details: Staphylococcus aureus, ATCC43300|MRSA, read-out: MIC (bacterial growth inhibition)
Experimental: (§2) The concentration of compound required to visibly stop the growth of bacteria is known as minimum inhibitory concentration (MIC). Different concentrations of the compounds are tested for the exact same number of bacteria, and the growth is monitored with time.
(§3) Bacterial strains were purchased from the American Type Culture Collection (ATCC) for the studies.
(§4) The MIC assay procedure follows the guidelines set by the Clinical Laboratory Sciences Institute (CLSI).
(§5) To do this, bacteria were transferred from pure agar culture, aseptically transferred in 5 mL of Cation-Adjusted Mueller-Hinton Broth (CAMHB). The broth was incubated overnight at 35° C. to stationary phase to achieve a turbidity suspension. A spectrophotometer (SpectraMax ID5) was used to measure the turbidity (optical density—OD at 625 nm). The inoculum was prepared by adjusting the turbidity of overnight culture to 0.5 McFarland, which is equal to the defined number of bacteria 1×10^8 CFU/ml.
(§6) (b) Compound Dilution: All compounds used in the study were dissolved in sterile ultra-pure DMSO (VWR International, PA, USA) and maintained at −80° C. Stock solution of the compound was freshly prepared the day of use or is prepared from a frozen stock solution stored at −80° C. […] The compound solution was prepared at a desired concentration in DMSO, and 1/10 dilution was performed in a sterile CAMHB medium. This 10-fold dilution of stock solution was used for a 2-fold serial dilution in a 96-well plate to observe an inhibitory effect of the compound on bacterial growth. 100 μL of diluted drug solution was transferred to a first column of the 96-well plate. 50 μL of sterile CAMHB was transferred to each well from well 2 to well 12. Next, 50 μL was removed from well 1 and added to well 2. The contents from well 2 were mixed by pipetting up and down. Next, 50 µL were removed from well 2 and added to well 3. This process was continued till well 11 is reached. 50 μL was discarded from the well 11. Each compound concentration was tested in triplicate.
(§7) (c) Inoculation of 96-well plate: The same number of bacteria (1×10^5 CFU/mL) were prepared after 150-fold dilution of 0.5 McFarland inoculum and used to add in the wells of different drug concentrations. 50 μL of working inoculum was carefully added to each well, except the sterility well 12. Mixing is performed by gently flushing the inoculum in and out of the pipette tip four or five times, avoiding splashing and bubble formation.
(§8) (d) Incubation: Plates were incubated at 35° C. for 24 hours without shaking or agitation.
(§9) (e) Determination of MIC: After 18-24 hours of incubation, the plates were read for MIC. SpectraMax iD5 microplate reader was used to measure turbidity at different time points. Turbidity (OD) increases as the bacteria grow over time.

[4] = tested on: VREF: E. faecalis resistant to vancomycin (ATCC 51299); assay: Broth microdilution MIC assay, VREF; details: Enterococcus faecalis
Experimental: as §2, §3, §4, §5, §6, §7, §8, §9

S. aureus (ATCC 29213) [5] = assay: Broth microdilution MIC assay, S. aureus; details: for MIC: Staphylococcus aureus, ATCC29213, read-out: MIC (bacterial growth inhibition), S. aureus; for higher efficacy than harmaline: antibacterial efficacy versus harmaline; for higher antibacterial activity than harmaline dimer without a substitution (GZ440/6): versus GZ440/6
Experimental: as §2, §3, §4, §5, §6, §7, §8, §9

E. faecalis (ATCC 29212) [6] = assay: Broth microdilution MIC assay, E. faecalis; details: Enterococcus faecalis, ATCC29212, read-out: MIC (bacterial growth inhibition)
Experimental: as §2, §3, §4, §5, §6, §7, §8, §9

Vero-E6 cells = assay: CytoTox 96 Nonradioactive Cytotoxicity Assay (LDH release)
Experimental: Cytotoxicity was measured using Promega™ CytoTox 96™ Nonradioactive Cytotoxicity Assay (cat #G1780, Promega, Madison, WI, USA).
Cytotoxicity was measured using the Promega™ CytoTox 96™ Nonradioactive Cytotoxicity Assay kit (cat #G1780, Promega, Madison, WI, USA) in 50 μL reactions and 96-well format (cat #161093, Thermo Fisher Scientific, Waltham, MA, USA) according to the manufacturer's protocol, except we used 20 μL of 10× Lysis Solution per 100 μL of sample and incubated at 37° C. for 30 minutes to generate the maximum LDH release control. The assay was measured using a BioTeK Synergy™ HT plate reader (model #7091000, BioTek, Winooski, VT, USA) at an optical density of 490 nm (OD490). […] LLC-MK2 cells were assessed for cytotoxicity at 5 days, whereas Vero E6 and Calu-3 cells were assessed for cytotoxicity every 24 hours from 1-5 days. Percent cytotoxicity was calculated by dividing the experimental LDH release at OD490 b.

S. aureus (ATCC 29213) [7] = assay: Minimum bactericidal concentration (MBC) assay, S. aureus; format: cell-based; details: Staphylococcus aureus, S. aureus
Experimental: as §1

E. faecalis (ATCC 29212) [8] = assay: Minimum bactericidal concentration (MBC) assay, E. faecalis; format: cell-based, Enterococcus faecalis; details: for MBC: Enterococcus faecalis, ATCC29212
Experimental: as §1

Solubility in DMSO = format: physicochemical
E. coli (ATCC 25922) = assay: Broth microdilution MIC assay, E. coli; details: E. coli
Experimental: as §2, §3, §4, §5, §6, §7, §8, §9

[9] = tested on: P. aeruginosa (ATCC 10145); assay: Broth microdilution MIC assay, P. aeruginosa
Experimental: as §2, §3, §4, §5
(b) Compound Dilution: All compounds used in the study were dissolved in sterile ultra-pure DMSO (VWR International, PA, USA) and maintained at −80° C. […]
(e) Determination of MIC: After 18-24 hours of incubation, the plates were read for MIC. SpectraMax iD5 microplate reader was used to measure turbidity at different time points. […]

[10] = tested on: engineered Salmonella typhimurium strain (umuC, β-galactosidase); details: without S9 activation
Excerpt: The EBPI UMU-ChromoTest™ assay is used for the detection and quantification of genotoxicity of compounds and is based on the International Organization for Standardization protocol ISO 13829. The UMU-ChromoTest™ assay utilizes a native bacterial mechanism for the detection of compound genotoxicity. The bacteria used for the assay is an engineered Salmonella typhimurium strain developed to include a gene coding for the β-galactosidase (β-gal) enzyme tethered to the umuC, a damage response gene. DNA damage activates the SOS system to transcribe β-gal proportional to the level of SOS induction. The UMU-ChromoTest™ bacterial strain has modifications to increase sensitivity to genotoxins with (a) increased sensitivity for even limited damage, (b) modified outer membrane of the cell to increase permeability to exogenous materials, and (c) production of a color change on addition to chromogenic substrate (ONPG), which is a quantitative measure of genotoxic damage to bacterial DNA.
Rehydration of Dried Bacteria and Culture Growth: The bacteria were rehydrated and incubated at 37° C. for 16-18 hours. OD600 of the overnight culture should be 0.5 or at least above 0.1 at 600 nm.
Sample Preparation and Plate Setup: The dimer compounds were dissolved in DMSO. All dilution and controls were made in the solvent of 10% DMSO in sterile 0.85% saline. The pH of the compounds was adjusted to 7.0±0.2 before incubation with bacteria to facilitate bacterial growth and prevent degradation of ONPG later in the assay. The solutions of hydrochloric acid and sodium hydroxide were used to adjust pH with minimal addition volumes to prevent excessive sample dilution. Six samples were run at 4 dilutions at a time.
Preliminary Dilution of Bacteria: The overnight bacterial culture was diluted to 50% by performing a reinoculation with 5 mL of overnight growth and 5 mL of fresh Growth media. The reinoculated bacteria was inoculated for 1.5 hours at 37° C. The OD600 should be approximately 80% of the reading from overnight growth or slightly higher.
Preparation of Plate A: Distilled water (180 μL) was added to all wells, except for rows A to F, columns 1 to 3 and row H, columns 1 to 6. Rows A to F are used for 6 compounds per plate. The test compounds (360 μL) were added to the first three wells (three replicates) of the same microplate, such that wells 1-3 were a triplicate set of the highest concertation of test compound (360 μL). Wells 4-12 each contained 180 μL of distilled water. For dilution, half of the contents (180 μL) from wells 1-3 was transferred to wells 4-6 which makes a second triplicate set. For a third dilution, half of the contents from wells 4-6 were transferred to 7-9, and for the fourth triplicate set, half of the contents from wells 7-9 was transferred to 10-12. […]

[11] = ATCC51299, 24 h, read-out: MIC (bacterial growth inhibition)
[12] = ATCC51299, 48 h, read-out: MIC (bacterial growth inhibition)
[13] = ATCC51299, read-out: MIC (bacterial growth inhibition)
[14] = ATCC29213, 24 h, read-out: MBC (kills bacteria)
[15] = ATCC29213, read-out: MBC (bactericidal activity)

Row | Compound | MBC (MRSA (ATCC 43300); read-out: MBC) [µg/mL] | MBC (MRSA (ATCC 43300); read-out: MRSA-MBC) [µM] | bacteriostatic/bactericidal activity [2] | MIC ([3]; 24 h) [µg/mL] | MIC ([3]; 90 h) [µg/mL] | MIC [4, 11] [µg/mL] | MIC [4, 12] [µg/mL] | MIC [4, 13] [µg/mL] | MIC (S. aureus (ATCC 29213) [5]; time not given) [µg/mL] | MIC (E. faecalis (ATCC 29212) [6]) | MBC (S. aureus (ATCC 29213) [7]; [14]) [µg/mL] | MBC (S. aureus (ATCC 29213) [7]; [15]) [µM] | MBC (kills bacteria) (E. faecalis (ATCC 29212) [8]) [µg/mL] | MBC (E. faecalis (ATCC 29212) [8]) [µM] | MBC (VREF (ATCC 51299)) [µg/mL] | solubility in DMSO (time to dissolve) (Solubility in DMSO) [min] | MIC (bacterial growth inhibition) (E. coli (ATCC 25922)) | higher efficacy than harmaline (S. aureus (ATCC 29213) [5]) [fold] | higher antibacterial activity than harmaline dimer without a substitution (GZ440/6) (S. aureus (ATCC 29213) [5]) [fold] | MIC (bacterial growth inhibition) [9] | further results
1 | COc1ccc2c3c([nH]c2c1)C(CCCC1=NCCc2c1[nH]c1cc(OC)ccc21)=NCC3 [GZ440/6] | 110 | 250 | show bacteriostatic and bactericidal activity | 27.5 (≈ 62.5 µM) | 55 (≈ 125 µM) | 55 (≈ 125 µM) | 110 (≈ 250 µM) | > 110 | 88 | 88 µg/mL and 200 µM | – | – | – | – | – | – | – | – | – | – | MBC (bactericidal activity) (VREF (ATCC 51299)): No bactericidal action was observed; inhibition of plaque formation ([1]; 2.0, 5.0 and 10.0 μM, CoV-2 in Vero-E6 cells at 120 h after infection): negligible inhibition; inhibition of plaque formation ([1]; at 20 μM and above): inhibition of plaque formation was significant; viral load (viral RNA levels) (SARS-CoV-2; higher concentrations (20 and 40 μM)): decreased viral load; viral load (viral RNA levels) (SARS-CoV-2; lower concentrations): not in lower concentrations; MIC (S. aureus (ATCC 29213) [5]): 200 µM; cytotoxicity (Vero-E6 cells; 20 μM and 40 μM): no significant cytotoxicity; cytotoxicity (Vero-E6 cells; Vero-E6 cells, 2.0 μM, 5.0 μM and 10.0 μM): negligible cytotoxicity
2 | COc1ccc2c3c([nH]c2c1)C(CC(CC1=NCCc2c1[nH]c1cc(OC)ccc21)c1cccnc1)=NCC3 [GK517.3, 1,1′-(2-(pyridin-3-yl)propane-1,3-diyl)bis(7-methoxy-4,9-dihydro-3H-pyrido[3,4-b]indole)] | 32.4 | 62.5 | show bacteriostatic and bactericidal activity | 8 (≈ 15.5 µM) | 16.2 (≈ 31.3 µM) | 32.4 (≈ 62.5 µM) | – | – | 51.7 | 51.7 µg/mL (≈ 99.9 µM) | 104 | 200 | 103.5 (≈ 200 µM) | 200 (≈ 104 µg/mL) | 64.7 (≈ 125 µM) | 10 to 15 | no inhibition was observed | ~15 | 1.75 | no inhibition was observed | MIC ([4]; ATCC51299, 90 h, read-out: MIC (bacterial growth inhibition)): 64.7 µg/mL (≈ 125 µM)
3 | COc1ccc2c3c([nH]c2c1)C(CC(CC1=NCCc2c1[nH]c1cc(OC)ccc21)c1c[nH]cn1)=NCC3 [1,1′-(2-(1H-imidazol-4-yl)propane-1,3-diyl)bis(7-methoxy-4,9-dihydro-3Hpyrido[3,4-b]indole)] | 63.3 | 125 | show bacteriostatic and bactericidal activity | 15.8 (≈ 31.2 µM) | 31.7 (≈ 62.5 µM) | 63.3 (≈ 125 µM) | 127 (≈ 250 µM) | > 127 | 50.6 | 50.6 µg/mL (≈ 99.9 µM) | 101 | 200 | 101.2 (≈ 200 µM) | 200 (≈ 101 µg/mL) | > 127 | 30 to 40 | no inhibition was observed | ~15 | 1.75 | no inhibition was observed | genotoxic concentration (not genotoxic up to / toxicity above) [10]: above 85 μM
